Several values for one entry are separate records, joined by “and”; a condition that tells them apart may be missing. Identical values can stand only once. Activity calls are given as the source filed them. No cut-off for these calls is given here.
Test system: Serratia marcescens
Assay: Potentiation of imipenem-induced antibacterial activity against IMP-1 expressing Serratia marcescens assessed as imipenem MIC incubated for 22 to 24 hrs (reference value: 16 ug/ml)
Assay type: functional
Conditions: time 22-24 hrs

Going from NS(=O)(=O)c1cccc(-c2ccncc2)c1-c1nn[nH]n1 to NS(=O)(=O)c1cccc(-c2cccnc2)c1-c1nn[nH]n1, the MITC95 rises from 9.37 µM to 50 µM (5.3-fold).

First: Cc1ccc(-c2cccc(S(N)(=O)=O)c2-c2nnn[nH]2)cc1
Second: NS(=O)(=O)c1cccc(-c2ccnc(CO)c2)c1-c1nn[nH]n1
The MITC95 of the first is 3.6-fold lower: 13.8 µM for the first, 50 µM for the second.

Compared with NS(=O)(=O)c1nccc(-c2ccc(CO)cc2)c1-c1nn[nH]n1, NS(=O)(=O)c1ccnc(-c2ccc(CO)cc2)c1-c1nn[nH]n1 is 7.1-fold higher in MITC95: 5.19 µM for the first, 37 µM for the second.

Test system: not listed separately
Assay: Inhibition of GST-tagged bacterial beta-lactamase […] expressed in Escherichia coli BL21(DE3) using CCF2-FA as substrate by fluorescence assay
Parameters: species or system Bacteria
Conditions: not given

NS(=O)(=O)c1cccc(-c2ccncc2)c1-c1nn[nH]n1 and NS(=O)(=O)c1cccc(-c2cccnc2)c1-c1nn[nH]n1 are within 1.5-fold of each other in IC50: 0.036 µM for the first, 0.024 µM for the second.

Going from O=C(O)COc1ccc2c(c1)CCN(C(=O)C(CS)CCc1ccccc1)C2C(=O)O (stereo not given) to c1ccc(-c2ccccc2-c2nn[nH]n2)cc1, the IC50 rises from 0.000243 µM to 0.044 µM (180-fold). The first is the more potent here.

First: OCc1ccc(-c2cccc(O)c2-c2nnn[nH]2)cc1
Second: NS(=O)(=O)c1cccc(-c2ccc(CO)cc2)c1-c1nn[nH]n1
The IC50 of the first is 290-fold higher: 0.704 µM for the first, 0.0024 µM for the second. The second is the more potent here.

Going from NS(=O)(=O)c1cccc(-c2ccccn2)c1-c1nn[nH]n1 to NS(=O)(=O)c1ccnc(-c2ccc(CO)cc2)c1-c1nn[nH]n1, the IC50 rises from 0.003 µM to 0.036 µM (12-fold). The first is the more potent here.

Compound NS(=O)(=O)c1nccc(-c2ccc(CO)cc2)c1-c1nn[nH]n1 has an IC50 of 0.035 µM.

For Cc1ccc(-c2cccc(S(N)(=O)=O)c2-c2nnn[nH]2)cc1, the IC50 was 0.0039 µM and 0.0037 µM.

Test system: Escherichia coli
Assay: Potentiation of imipenem-induced antibacterial activity against NDM-1 expressing Escherichia coli assessed as imipenem MIC incubated for 22 to 24 hrs (reference value: 32 ug/ml)
Assay type: functional
Conditions: time 22-24 hrs

NS(=O)(=O)c1cccc(-c2ccncc2)c1-c1nn[nH]n1 and NS(=O)(=O)c1cccc(-c2cccnc2)c1-c1nn[nH]n1 are within 1.5-fold of each other in MITC95: 0.45 µM for the first, 0.39 µM for the second.

First: Cc1ccc(-c2cccc(S(N)(=O)=O)c2-c2nnn[nH]2)cc1
Second: NS(=O)(=O)c1cccc(-c2ccnc(CO)c2)c1-c1nn[nH]n1
The MITC95 of the first is 3.8-fold higher: 1.48 µM for the first, 0.39 µM for the second.

First: NS(=O)(=O)c1cccc(-c2ccccn2)c1-c1nn[nH]n1
Second: NS(=O)(=O)c1ccnc(-c2ccc(CO)cc2)c1-c1nn[nH]n1
The MITC95 of the first is 2.9-fold lower: 0.78 µM for the first, 2.3 µM for the second.

In the case of NS(=O)(=O)c1nccc(-c2ccc(CO)cc2)c1-c1nn[nH]n1, the MITC95 is reported as 0.558 µM.

Test system: Klebsiella pneumoniae
Assay: Antibacterial activity against Klebsiella pneumoniae MB9249 expressing IMP-26 infected in cyclophosphamide treated DBA/2 mouse assessed as reduction in bacterial burden in kidney at 10 to 50 mg/kg, sc administered three times for 1 day and measured after 24 hrs post injection in presence of imipenem
Assay type: functional, organism-based
Conditions: dose 10-50 mg/kg

In the case of NS(=O)(=O)c1nccc(-c2ccc(CO)cc2)c1-c1nn[nH]n1, the Activity is reported as “Active”.

Test system: not listed separately
Assay: Selectivity ratio of MITC50 for NDM-1 expressing Escherichia coli to IC50 for GST-tagged bacterial beta-lactamase […]
Conditions: not given

Compared with NS(=O)(=O)c1cccc(-c2ccncc2)c1-c1nn[nH]n1, NS(=O)(=O)c1cccc(-c2cccnc2)c1-c1nn[nH]n1 is higher in Selectivity ratio: 12 for the first, 16 for the second.

In the case of Cc1ccc(-c2cccc(S(N)(=O)=O)c2-c2nnn[nH]2)cc1, the Selectivity ratio is reported as 400.

Test system: Klebsiella pneumoniae
Assay: Antibacterial activity against Klebsiella pneumoniae MB9249 expressing IMP-26 infected in cyclophosphamide treated DBA/2 mouse assessed as reduction in bacterial burden in spleen at 10 to 50 mg/kg, sc administered three times for 1 day and measured after 24 hrs post injection in presence of imipenem
Assay type: functional, organism-based
Conditions: dose 10-50 mg/kg

With NS(=O)(=O)c1nccc(-c2ccc(CO)cc2)c1-c1nn[nH]n1 the Activity was “Active”.

Test system: Klebsiella pneumoniae
Assay: Antibacterial activity against Klebsiella pneumoniae MB9249 expressing IMP-26 infected in cyclophosphamide treated DBA/2 mouse assessed as reduction in bacterial burden in spleen at 10 to 50 mg/kg, sc administered three times for 1 day and measured after 24 hrs post injection
Assay type: functional, organism-based
Conditions: dose 10-50 mg/kg

With NS(=O)(=O)c1nccc(-c2ccc(CO)cc2)c1-c1nn[nH]n1 the Activity was “inactive”.

Test system: Klebsiella pneumoniae
Assay: Potentiation of imipenem-induced antibacterial activity against VIM-1 expressing Klebsiella pneumoniae assessed as imipenem MIC incubated for 22 to 24 hrs (reference value: 16 ug/ml)
Assay type: functional
Conditions: time 22-24 hrs

Going from NS(=O)(=O)c1cccc(-c2ccncc2)c1-c1nn[nH]n1 to NS(=O)(=O)c1cccc(-c2cccnc2)c1-c1nn[nH]n1, the MITC95 rises from 25 µM to 50 µM (2-fold).

Going from NS(=O)(=O)c1cccc(-c2ccc(CO)cc2)c1-c1nn[nH]n1 to NS(=O)(=O)c1nccc(-c2ccc(CO)cc2)c1-c1nn[nH]n1, the MITC95 falls from 50 µM to 11.76 µM (4.3-fold).

Compared with Cc1ccc(-c2cccc(S(N)(=O)=O)c2-c2nnn[nH]2)cc1, NS(=O)(=O)c1cccc(-c2ccccn2)c1-c1nn[nH]n1 is 5.1-fold lower in MITC95: 127 µM for the first, 25 µM for the second.

In the case of NS(=O)(=O)c1ccnc(-c2ccc(CO)cc2)c1-c1nn[nH]n1, the MITC95 is reported as >200 µM.

Test system: Klebsiella pneumoniae
Assay: Antibacterial activity against Klebsiella pneumoniae MB9249 expressing IMP-26 infected in cyclophosphamide treated DBA/2 mouse assessed as reduction in bacterial burden in kidney at 10 to 50 mg/kg, sc administered three times for 1 day and measured after 24 hrs post injection
Assay type: functional, organism-based
Conditions: dose 10-50 mg/kg

For NS(=O)(=O)c1nccc(-c2ccc(CO)cc2)c1-c1nn[nH]n1, the Activity was “inactive”.

Test system: Escherichia coli
Assay: Antibacterial activity against Escherichia coli CLB30005 expressing NDM-1 assessed as growth inhibition in presence of ZnSO4
Assay type: functional, organism-based
Conditions: not given

With Cc1ccc(-c2cccc(S(N)(=O)=O)c2-c2nnn[nH]2)cc1 the Activity was “inactive”.

Test system: not listed separately
Assay: Inhibition of Cav1.5 (unknown origin)
Parameters: species or system Homo sapiens
Conditions: not given

For NS(=O)(=O)c1nccc(-c2ccc(CO)cc2)c1-c1nn[nH]n1, the IC50 was > 30 µM.

Test system: not listed separately
Assay: Inhibition of GST-tagged bacterial beta-lactamase VIM-1 expressed in Escherichia coli BL21(DE3) using CCF2-FA as substrate by fluorescence assay
Parameters: species or system Bacteria
Conditions: not given

NS(=O)(=O)c1cccc(-c2ccncc2)c1-c1nn[nH]n1 and NS(=O)(=O)c1cccc(-c2cccnc2)c1-c1nn[nH]n1 are within 1.5-fold of each other in IC50: 0.285 µM for the first, 0.269 µM for the second.

First: O=C(O)COc1ccc2c(c1)CCN(C(=O)C(CS)CCc1ccccc1)C2C(=O)O (stereo not given)
Second: c1ccc(-c2ccccc2-c2nn[nH]n2)cc1
The IC50 of the first is 8.9-fold lower: 0.00248 µM for the first, 0.022 µM for the second.

First: OCc1ccc(-c2cccc(O)c2-c2nnn[nH]2)cc1
Second: NS(=O)(=O)c1cccc(-c2ccc(CO)cc2)c1-c1nn[nH]n1
The IC50 of the first is 120-fold higher: 7.2 µM for the first, 0.058 µM for the second. The second is the more potent here.

Going from NS(=O)(=O)c1cccc(-c2ccccn2)c1-c1nn[nH]n1 to NS(=O)(=O)c1ccnc(-c2ccc(CO)cc2)c1-c1nn[nH]n1, the IC50 rises from 0.09 µM to 4.13 µM (46-fold).

NS(=O)(=O)c1nccc(-c2ccc(CO)cc2)c1-c1nn[nH]n1 showed an IC50 of 0.269 µM.

In the case of Cc1ccc(-c2cccc(S(N)(=O)=O)c2-c2nnn[nH]2)cc1, the IC50 is reported as 0.0575 µM and 0.057 µM.

Test system: not listed separately
Assay: Selectivity ratio of MITC50 for IMP-1 expressing Serratia marcescens to IC50 for GST-tagged bacterial beta-lactamase IMP-1
Conditions: not given

Compared with NS(=O)(=O)c1cccc(-c2ccncc2)c1-c1nn[nH]n1, NS(=O)(=O)c1cccc(-c2cccnc2)c1-c1nn[nH]n1 is higher in Selectivity ratio: 19 for the first, 28 for the second.

For Cc1ccc(-c2cccc(S(N)(=O)=O)c2-c2nnn[nH]2)cc1, the Selectivity ratio was 215.

Test system: not listed separately
Assay: Inhibition of GST-tagged bacterial beta-lactamase IMP-1 expressed in Escherichia coli BL21(DE3) using CCF2-FA as substrate by fluorescence assay
Parameters: species or system Bacteria
Conditions: not given

Going from NS(=O)(=O)c1cccc(-c2ccncc2)c1-c1nn[nH]n1 to NS(=O)(=O)c1cccc(-c2cccnc2)c1-c1nn[nH]n1, the IC50 rises from 0.485 µM to 1.78 µM (3.7-fold).

Compared with O=C(O)COc1ccc2c(c1)CCN(C(=O)C(CS)CCc1ccccc1)C2C(=O)O (stereo not given), c1ccc(-c2ccccc2-c2nn[nH]n2)cc1 is 13-fold higher in IC50: 0.000155 µM for the first, 0.002 µM for the second.

Compared with OCc1ccc(-c2cccc(O)c2-c2nnn[nH]2)cc1, NS(=O)(=O)c1cccc(-c2ccc(CO)cc2)c1-c1nn[nH]n1 is lower in IC50: > 20 µM for the first, 0.046 µM for the second.

Going from Cc1ccc(-c2cccc(S(N)(=O)=O)c2-c2nnn[nH]2)cc1 to NS(=O)(=O)c1cccc(-c2ccccn2)c1-c1nn[nH]n1, the IC50 rises from 0.064 µM to 0.33 µM (5.2-fold). The first is the more potent here.

First: NS(=O)(=O)c1nccc(-c2ccc(CO)cc2)c1-c1nn[nH]n1
Second: NS(=O)(=O)c1ccnc(-c2ccc(CO)cc2)c1-c1nn[nH]n1
The IC50 of the first is 2.1-fold lower: 0.369 µM for the first, 0.767 µM for the second. The first is the more potent here.

Test system: not listed separately
Assay: Selectivity ratio of MITC50 for VIM-1 expressing Klebsiella pneumoniae to IC50 for GST-tagged bacterial beta-lactamase VIM-1
Conditions: not given

Compared with NS(=O)(=O)c1cccc(-c2ccncc2)c1-c1nn[nH]n1, NS(=O)(=O)c1cccc(-c2cccnc2)c1-c1nn[nH]n1 is higher in Selectivity ratio: 87 for the first, 185 for the second.

For Cc1ccc(-c2cccc(S(N)(=O)=O)c2-c2nnn[nH]2)cc1, the Selectivity ratio was 2230.
